According to patent US20060069132A1, “Azolecarboxamide herbicides” (priority 2004, published 2006):
Where two headings read alike, the source gives them in different places.

Assays:
velvetleaf = assay: Test A pre-/postemergence herbicide test; type: in vivo, Abutilon theophrasti
Summary of the method: (§1)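 Sandy loam soil given preemergence directed spray; plants at 2 to 10 cm, one- to two-leaf stage, sprayed to runoff postemergence, compounds in non-phytotoxic solvent with surfactant. Injury rated visually versus untreated controls after about ten greenhouse days, 0 (no effect) to 100 (complete control); dash means not tested.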

kochia = assay: Test C pre-/postemergence herbicide test; type: in vivo, Kochia scoparia
Summary of the method: (§2)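 Preemergence: seeds planted and treated with compound in non-phytotoxic solvent with surfactant; postemergence: plants at 2 to 18 cm (1- to 4-leaf stage) sprayed likewise. Kept in greenhouse 12 to 14 days, then visually rated against controls, 0 (no effect) to 100 (complete control).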

morningglory = assay: Test C pre-/postemergence herbicide test; type: in vivo, Ipomoea coccinea; set-up: key to Plant response rating, Morningglory: 0 = no effect, 100 = complete control
Summary of the method: as §2

barnyardgrass = assay: Test A pre-/postemergence herbicide test; type: in vivo, Echinochloa crus-galli; details: for pest or weed control at 500 g/ha / pest or weed control at 2000 g/ha: Echinochloa crus-galli, 240 h
Summary of the method: as §1

cocklebur = assay: Test C pre-/postemergence herbicide test; type: in vivo, Xanthium strumarium
Summary of the method: as §2

lambsquarters = assay: Test C pre-/postemergence herbicide test; type: in vivo, Chenopodium album
Summary of the method: as §2

common ragweed = assay: Test C pre-/postemergence herbicide test; type: in vivo, Ambrosia elatior; set-up: key to Plant response rating, Ragweed: 0 = no effect, 100 = complete control
Summary of the method: as §2

[1] = Postemergence, 500 g ai/ha, 0 to 100 scale, 0 no effect, 100 complete control
[2] = Postemergence, 2000 g ai/ha, 0 to 100 scale, 0 no effect, 100 complete control
[3] = Preemergence, 2000 g ai/ha, visual rating, 0 to 100 scale (0 no effect, 100 complete control)
[4] = preemergence, 500 g ai/ha, visual injury, 0 to 100 scale (0 no effect, 100 complete control)
[5] = 62 g ai/ha, preemergence, scale 0 to 100
[6] = 125 g ai/ha, scale 0 (no effect) to 100 (complete control), visual, 12 to 14 days, preemergence
[7] = 250 g ai/ha, scale 0-100, preemergence
[8] = Preemergence, 500 g ai/ha, scale 0 to 100, 0 no effect, 100 complete control
[9] = 500 g ai/ha, scale 0 to 100 (0 no effect, 100 complete control), visual, 12 to 14 days, preemergence
[10] = Postemergence, 500 g ai/ha, scale 0 to 100
[11] = Postemergence, 250 g ai/ha, scale 0 to 100, 0 no effect, 100 complete control
[12] = postemergence, 125 g ai/ha, scale 0 to 100
[13] = postemergence, 62 g ai/ha, scale 0 to 100

Structure (SMILES): CCN(CC)C(=O)c1cccc(NC(=O)c2sc(C(C)(C)C)nc2C)c1 [Compound 199]
- Velvetleaf plant response rating (velvetleaf; [1]): 30
- Plant response rating, Velvetleaf (velvetleaf; [2]): 35
- Velvetleaf plant response rating (velvetleaf; [3]): 90
- Velvetleaf plant response rating (velvetleaf; [4]): 35
- Plant response rating, Kochia (kochia; [5]): 80
- Plant response rating, Kochia (kochia; [6]): 85
- Plant response rating, Kochia (kochia; [7]): 90
- Kochia plant response rating (kochia; [8]): 90
- Plant response rating, Morningglory (morningglory; [6]): 50
- Plant response rating, Morningglory (morningglory; [7]): 70
- Morningglory plant response rating (morningglory; [8]): 70
- Barnyardgrass plant response rating (barnyardgrass; [1]): 10
- Plant response rating, Barnyardgrass (barnyardgrass; [2]): 80
- Barnyardgrass plant response rating (barnyardgrass; [3]): 95
- Barnyardgrass plant response rating (barnyardgrass; [4]): 55
- Plant response rating, Cocklebur (cocklebur; [5]): 0
- Plant response rating, Cocklebur (cocklebur; [6]): 0
- Plant response rating, Cocklebur (cocklebur; [7]): 0
- Cocklebur plant response rating (cocklebur; [8]): 0
- Plant response rating, Lambsquarters (lambsquarters; [5]): 80
- Plant response rating, Lambsquarters (lambsquarters; [6]): 95
- Plant response rating, Lambsquarters (lambsquarters; [7]): 100
- Lambsquarters plant response rating (lambsquarters; [8]): 100
- Plant response rating, Ragweed (common ragweed; [5]): 55
- Plant response rating, Ragweed (common ragweed; [6]): 60
- Plant response rating, Ragweed (common ragweed; [7]): 80
- Ragweed plant response rating (common ragweed; [8]): 80

Structure (SMILES): CCCCOc1cccc(NC(=O)c2cc(C(C)(C)C)nn2CC)c1 [Compound 137]
- Velvetleaf plant response rating (velvetleaf; [1]): 60
- Plant response rating, Velvetleaf (velvetleaf; [2]): 70
- Velvetleaf plant response rating (velvetleaf; [3]): 35
- Velvetleaf plant response rating (velvetleaf; [4]): 20
- Plant response rating (0 = no effect, 100 = complete control), Kochia (kochia; 62 g ai/ha, preemergence): 80
- Plant response rating, Kochia (kochia; [6]): 90
- Kochia plant response rating (kochia; [8]): 100
- Plant response rating (0 = no effect, 100 = complete control), Morningglory (morningglory; 62 g ai/ha, preemergence): 0
- Plant response rating, Morningglory (morningglory; [6]): 0
- Morningglory plant response rating (morningglory; [8]): 60
- Barnyardgrass plant response rating (barnyardgrass; [1]): 20
- Plant response rating, Barnyardgrass (barnyardgrass; [2]): 25
- Barnyardgrass plant response rating (barnyardgrass; Preemergence, 500 g ai/ha, visual rating, 0 to 100 scale (0 no effect, 100 complete control)): 30
- Barnyardgrass plant response rating (barnyardgrass; [3]): 60
- Plant response rating (0 = no effect, 100 = complete control), Cocklebur (cocklebur; 62 g ai/ha, preemergence): 0
- Plant response rating, Cocklebur (cocklebur; [6]): 0
- Plant response rating, Cocklebur (cocklebur; 250 g ai/ha, scale 0 to 100 (0 no effect, 100 complete control), visual, 12 to 14 days, preemergence): 0
- Cocklebur plant response rating (cocklebur; [8]): 0
- Plant response rating (0 = no effect, 100 = complete control), Lambsquarters (lambsquarters; 62 g ai/ha, preemergence): 40
- Plant response rating, Lambsquarters (lambsquarters; [6]): 100
- Lambsquarters plant response rating (lambsquarters; [8]): 100
- Plant response rating (0 = no effect, 100 = complete control), Ragweed (common ragweed; 62 g ai/ha, preemergence): 0
- Plant response rating, Ragweed (common ragweed; [6]): 0
- Ragweed plant response rating (common ragweed; [8]): 100

Structure (SMILES): CCc1nc(C(C)(C)C)sc1C(=O)Nc1cccc(C(=O)NCC2CC2)c1 [Compound 212]
- Velvetleaf plant response rating (velvetleaf; [1]): 35
- Plant response rating, Velvetleaf (velvetleaf; [2]): 35
- Velvetleaf plant response rating (velvetleaf; [3]): 100
- Velvetleaf plant response rating (velvetleaf; [4]): 65
- Plant response rating, Kochia (kochia; [5]): 85
- Plant response rating, Kochia (kochia; [6]): 85
- Plant response rating, Kochia (kochia; [7]): 90
- Plant response rating, Kochia (kochia; [9]): 95
- Kochia plant response rating (kochia; [10]): 90
- Plant response rating, Kochia (kochia; [11]): 90
- Plant response rating, Kochia (kochia; [12]): 80
- Plant response rating, Kochia (kochia; [13]): 80
- Plant response rating, Morningglory (morningglory; [5]): 0
- Plant response rating, Morningglory (morningglory; [6]): 0
- Plant response rating, Morningglory (morningglory; [7]): 5
- Plant response rating, Morningglory (morningglory; [9]): 30
- Morningglory plant response rating (morningglory; [10]): 70
- Plant response rating, Morningglory (morningglory; [11]): 70
- Plant response rating, Morningglory (morningglory; [12]): 10
- Plant response rating, Morningglory (morningglory; [13]): 10
- Barnyardgrass plant response rating (barnyardgrass; [1]): 50
- Plant response rating, Barnyardgrass (barnyardgrass; [2]): 90
- Barnyardgrass plant response rating (barnyardgrass; [3]): 85
- Barnyardgrass plant response rating (barnyardgrass; [4]): 80
- Plant response rating, Cocklebur (cocklebur; [5]): 0
- Plant response rating, Cocklebur (cocklebur; [6]): 0
- Plant response rating, Cocklebur (cocklebur; [7]): 5
- Cocklebur plant response rating (cocklebur; [10]): 70
- Plant response rating, Cocklebur (cocklebur; [11]): 70
- Cocklebur plant response rating (cocklebur; [8]): 95
- Plant response rating, Cocklebur (cocklebur; [12]): 60
- Plant response rating, Cocklebur (cocklebur; [13]): 10
- Plant response rating, Lambsquarters (lambsquarters; [5]): 100
- Plant response rating, Lambsquarters (lambsquarters; [6]): 100
- Plant response rating, Lambsquarters (lambsquarters; [7]): 100
- Plant response rating, Lambsquarters (lambsquarters; [9]): 100
- Lambsquarters plant response rating (lambsquarters; [10]): 100
- Plant response rating, Lambsquarters (lambsquarters; [11]): 90
- Plant response rating, Lambsquarters (lambsquarters; [12]): 90
- Plant response rating, Lambsquarters (lambsquarters; [13]): 80
- Plant response rating, Ragweed (common ragweed; [5]): 0
- Plant response rating, Ragweed (common ragweed; [6]): 0
- Plant response rating, Ragweed (common ragweed; [7]): 30
- Plant response rating, Ragweed (common ragweed; [9]): 95
- Plant response rating, Ragweed (common ragweed; [11]): 80
- Plant response rating, Ragweed (common ragweed; [12]): 60
- Plant response rating, Ragweed (common ragweed; [13]): 60

Structure (SMILES): CCn1nc(C(C)(C)C)cc1C(=O)Nc1cccc(C(=O)OCCF)c1 [Compound 82, 2-fluoroethyl 3-[[[3-(1,1-dimethylethyl)-1-ethyl-1H-pyrazol-5-yl]-carbonyl]amino]benzoate]
- pest or weed control at 2000 g/ha (velvetleaf; Abutilon theophrasti, post-emergence, 240 h, Postemergence, 2000 g ai/ha, 0 to 100 scale, 0 no effect, 100 complete control, read-out: Plant response rating, Velvetleaf): 30%
- pest or weed control at 500 g/ha (velvetleaf; Abutilon theophrasti, pre-emergence, 240 h, Preemergence, 500 g ai/ha, visual rating, 0 to 100 scale (0 no effect, 100 complete control), read-out: Velvetleaf plant response rating): 0%
- pest or weed control at 2000 g/ha (velvetleaf; Abutilon theophrasti, pre-emergence, 240 h, Preemergence, 2000 g ai/ha, visual rating, 0 to 100 scale (0 no effect, 100 complete control), read-out: Velvetleaf plant response rating): 0%
- pest or weed control at 250 g/ha (kochia; Bassia scoparia, post-emergence, Postemergence, 250 g ai/ha, scale 0 to 100, 0 no effect, 100 complete control, read-out: Plant response rating, Kochia): 50%
- pest or weed control at 125 g/ha (kochia; Bassia scoparia, post-emergence, postemergence, 125 g ai/ha, scale 0 to 100, read-out: Plant response rating, Kochia): 40%
- pest or weed control at 62 g/ha (kochia; Bassia scoparia, post-emergence, postemergence, 62 g ai/ha, scale 0 to 100, read-out: Plant response rating, Kochia): 10%
- Kochia plant response rating (kochia; [10]): 70
- pest or weed control at 250 g/ha (morningglory; Ipomoea, post-emergence, Postemergence, 250 g ai/ha, scale 0 to 100, 0 no effect, 100 complete control, read-out: Plant response rating, Morningglory): 50%
- pest or weed control at 125 g/ha (morningglory; Ipomoea, post-emergence, postemergence, 125 g ai/ha, scale 0 to 100, read-out: Plant response rating, Morningglory): 10%
- pest or weed control at 62 g/ha (morningglory; Ipomoea, post-emergence, postemergence, 62 g ai/ha, scale 0 to 100, read-out: Plant response rating, Morningglory): 10%
- Morningglory plant response rating (morningglory; [10]): 50
- pest or weed control at 500 g/ha (barnyardgrass; post-emergence, Postemergence, 500 g ai/ha, 0 to 100 scale, 0 no effect, 100 complete control, read-out: Plant response rating, Barnyardgrass): 20%
- pest or weed control at 2000 g/ha (barnyardgrass; post-emergence, Postemergence, 2000 g ai/ha, 0 to 100 scale, 0 no effect, 100 complete control, read-out: Plant response rating, Barnyardgrass): 20%
- pest or weed control at 500 g/ha (barnyardgrass; pre-emergence, Preemergence, 500 g ai/ha, visual rating, 0 to 100 scale (0 no effect, 100 complete control), read-out: Barnyardgrass plant response rating): 0%
- pest or weed control at 2000 g/ha (barnyardgrass; pre-emergence, Preemergence, 2000 g ai/ha, 0 to 100 scale, 0 no effect, 100 complete control, read-out: Barnyardgrass plant response rating): 0%
- pest or weed control at 500 g/ha (cocklebur; Xanthium strumarium, post-emergence, 312 h, Postemergence, 500 g ai/ha, scale 0 to 100, read-out: Cocklebur plant response rating): 20%
- pest or weed control at 250 g/ha (cocklebur; Xanthium strumarium, post-emergence, 312 h, Postemergence, 250 g ai/ha, scale 0 to 100, 0 no effect, 100 complete control, read-out: Plant response rating, Cocklebur): 5%
- pest or weed control at 125 g/ha (cocklebur; Xanthium strumarium, post-emergence, 312 h, postemergence, 125 g ai/ha, scale 0 to 100, read-out: Plant response rating, Cocklebur): 5%
- pest or weed control at 62 g/ha (cocklebur; Xanthium strumarium, post-emergence, 312 h, postemergence, 62 g ai/ha, scale 0 to 100, read-out: Plant response rating, Cocklebur): 5%
- pest or weed control at 250 g/ha (lambsquarters; Chenopodium album, post-emergence, Postemergence, 250 g ai/ha, scale 0 to 100, 0 no effect, 100 complete control, read-out: Plant response rating, Lambsquarters): 80%
- pest or weed control at 125 g/ha (lambsquarters; Chenopodium album, post-emergence, postemergence, 125 g ai/ha, scale 0 to 100, read-out: Plant response rating, Lambsquarters): 50%
- pest or weed control at 62 g/ha (lambsquarters; Chenopodium album, post-emergence, postemergence, 62 g ai/ha, scale 0 to 100, read-out: Plant response rating, Lambsquarters): 30%
- Lambsquarters plant response rating (lambsquarters; [10]): 100
- pest or weed control at 250 g/ha (common ragweed; Ambrosia artemisiifolia, post-emergence, Postemergence, 250 g ai/ha, scale 0 to 100, 0 no effect, 100 complete control, read-out: Plant response rating, Ragweed): 10%
- pest or weed control at 125 g/ha (common ragweed; Ambrosia artemisiifolia, post-emergence, postemergence, 125 g ai/ha, scale 0 to 100, read-out: Plant response rating, Ragweed): 0%
- pest or weed control at 62 g/ha (common ragweed; Ambrosia artemisiifolia, post-emergence, postemergence, 62 g ai/ha, scale 0 to 100, read-out: Plant response rating, Ragweed): 0%
- Ragweed plant response rating (common ragweed; [10]): 30
